Measurements taken from patent US20230103250A1, “DRUG SUBSTANCE OF L[…] MEDICINAL COMPOSITION COMPRISING SAME” (Eisai R&D Management Co., Ltd., priority 2020, published 2023).

Test: Particle size (D90) of lemborexant active pharmaceutical ingredient by laser diffraction/scattering
Assay type: physicochemical
Details: for D90 (μm): after pulverization with 160UPZ (Example 1, Table 2), Microtrack MT3300EXII; for Particle size (D90 (μm)): pulverized lemborexant API lots, Table 1
Method: The particle size of the granular material, which is a lemborexant active pharmaceutical ingredient, can be measured by a laser diffraction/scattering method.
A sample suspension is prepared by dispersing about 30 mg of a lemborexant active pharmaceutical ingredient in 50 mL of a 0.1% polysorbate 20 aqueous solution as a dispersion solvent. The sample suspension is put into a diffractometer and an appropriate amount of dispersion solvent is added. The particle size distribution of the sample suspension is measured, and the value of the particle size of the sample is recorded as a cumulative diameter distribution.
Particle size distribution measurement conditions for the diffractometer may be as follows.
Number of measurements: 3 times
Measurement time: 30 seconds
Transparency: Transparent
Particle refractive index: 1.81
Solvent refractive index: 1.33
The 90% cumulative diameter (D90) was measured with a particle size analyzer (Microtrack MT3300EXII). A sample suspension was prepared by dispersing about 30 mg of a lemborexant active pharmaceutical ingredient in 50 mL of a dispersion solvent 0.1% polysorbate 20 aqueous solution. The sample suspension was put into a particle size analyzer, and an appropriate amount of a dispersion solvent was added thereto. The particle size distribution of the sample suspension was measured, and the value of the particle size of the sample was recorded as a cumulative diameter distribution.
The measurement conditions for the particle size analyzer are as follows.
Flow rate: 50% Number of measurements: 3 times Measurement time: 30 seconds
Particle refractive index: 1.81 Solvent refractive index: 1.33

Cc1ncc(OC[C@@]2(c3cccc(F)c3)C[C@H]2C(=O)Nc2ccc(F)cn2)c(C)n1 [Lot S1]
D90 (μm) (listed as S1): 98 μm

Cc1ncc(OC[C@@]2(c3cccc(F)c3)C[C@H]2C(=O)Nc2ccc(F)cn2)c(C)n1 [Lot S2]
D90 (μm) (listed as S2): 79 μm

Cc1ncc(OC[C@@]2(c3cccc(F)c3)C[C@H]2C(=O)Nc2ccc(F)cn2)c(C)n1 [Lot S3]
D90 (μm) (listed as S3): 64 μm

Cc1ncc(OC[C@@]2(c3cccc(F)c3)C[C@H]2C(=O)Nc2ccc(F)cn2)c(C)n1 [Lot S5]
D90 (μm) (listed as S5): 110 μm

Cc1ncc(OC[C@@]2(c3cccc(F)c3)C[C@H]2C(=O)Nc2ccc(F)cn2)c(C)n1 [Lot S4]
D90 (μm) (listed as S4): 56 μm

Cc1ncc(OC[C@@]2(c3cccc(F)c3)C[C@H]2C(=O)Nc2ccc(F)cn2)c(C)n1 [Lot 8]
Particle size (D90 (μm)) (listed as 8): 35 μm

Cc1ncc(OC[C@@]2(c3cccc(F)c3)C[C@H]2C(=O)Nc2ccc(F)cn2)c(C)n1 [Lot 6]
Particle size (D90 (μm)) (listed as 6): 23 μm

Cc1ncc(OC[C@@]2(c3cccc(F)c3)C[C@H]2C(=O)Nc2ccc(F)cn2)c(C)n1 [Lot 1]
Particle size (D90 (μm)) (listed as 1): 47 μm

Cc1ncc(OC[C@@]2(c3cccc(F)c3)C[C@H]2C(=O)Nc2ccc(F)cn2)c(C)n1 [Lot S6]
D90 (μm) (listed as S6): 20 μm

Cc1ncc(OC[C@@]2(c3cccc(F)c3)C[C@H]2C(=O)Nc2ccc(F)cn2)c(C)n1 [Lot 4]
Particle size (D90 (μm)) (listed as 4): 32 μm

Cc1ncc(OC[C@@]2(c3cccc(F)c3)C[C@H]2C(=O)Nc2ccc(F)cn2)c(C)n1 [Lot 9]
Particle size (D90 (μm)) (listed as 9): 34 μm

Cc1ncc(OC[C@@]2(c3cccc(F)c3)C[C@H]2C(=O)Nc2ccc(F)cn2)c(C)n1 [Lot 7]
Particle size (D90 (μm)) (listed as 7): 40 μm

Cc1ncc(OC[C@@]2(c3cccc(F)c3)C[C@H]2C(=O)Nc2ccc(F)cn2)c(C)n1 [lemborexant, (1R,2S)-2-(((2,4-dimethylpyrimidine-5-yl)oxy)methyl)-2-(3-fluorophenyl)-N-(5-fluoropyridin-2-yl)cyclopropanecarboxamide]
D90 (API used for the tablets of Example 4): 32 μm

Cc1ncc(OC[C@@]2(c3cccc(F)c3)C[C@H]2C(=O)Nc2ccc(F)cn2)c(C)n1 [Lot 5]
Particle size (D90 (μm)) (listed as 5): 39 μm

Cc1ncc(OC[C@@]2(c3cccc(F)c3)C[C@H]2C(=O)Nc2ccc(F)cn2)c(C)n1 [Lot 3]
Particle size (D90 (μm)) (listed as 3): 48 μm

Cc1ncc(OC[C@@]2(c3cccc(F)c3)C[C@H]2C(=O)Nc2ccc(F)cn2)c(C)n1 [Lot 2]
Particle size (D90 (μm)) (listed as 2): 18 μm
